± gives the expanded uncertainty stated by the source.
Tests used:
[1] = xn = mol fraction of the nth substance listed; settings: 101 kPa, Liquid; for viscosity: Capillary tube (Ostwald / Ubbelohde) method; for mass density: Vibrating tube method
[2] = 101 kPa, Liquid; for viscosity: Capillary tube (Ostwald / Ubbelohde) method; for mass density: Vibrating tube method

NCCO [2-aminoethan-1-ol] + O
[1]
Settings	mass density, 298.15 K [kg/m3]	mass density, 313.15 K [kg/m3]	mass density, 323.15 K [kg/m3]	mass density, 343.15 K [kg/m3]	mass density, 353.15 K [kg/m3]	viscosity, 298.15 K [mPa·s]	viscosity, 313.15 K [mPa·s]	viscosity, 323.15 K [mPa·s]	viscosity, 343.15 K [mPa·s]	viscosity, 353.15 K [mPa·s]
x1 = 0.06867	1005 ± 5	999 ± 5	994 ± 5	983 ± 5	977 ± 5	1.7 ± 0.2	1.18 ± 0.2	0.95 ± 0.2	0.67 ± 0.2	0.58 ± 0.2
x1 = 0.1122	1011 ± 4	1003 ± 4	998 ± 4	986 ± 4	979 ± 4	2.48 ± 0.21	1.67 ± 0.2	1.33 ± 0.2	0.92 ± 0.2	0.77 ± 0.2
x1 = 0.1643	1016 ± 4	1008 ± 4	1002 ± 4	989 ± 4	982 ± 4	3.58 ± 0.22	2.28 ± 0.21	1.75 ± 0.2	1.14 ± 0.2	0.95 ± 0.2
x1 = 0.2278	1021 ± 4	1012 ± 3	1005 ± 3	992 ± 3	984 ± 3	5.51 ± 0.23	3.39 ± 0.21	2.54 ± 0.21	1.57 ± 0.2	1.28 ± 0.2
x1 = 0.4076	1026 ± 2	1016 ± 2	1008 ± 2	993 ± 2	985 ± 2	12.46 ± 0.29	6.96 ± 0.24	4.94 ± 0.22	2.79 ± 0.21	2.18 ± 0.2
x1 = 0.7264	1020 ± 1	1008 ± 1	1001 ± 1	985 ± 1	976 ± 1	19.4 ± 0.3	10.2 ± 0.24	7.06 ± 0.22	3.81 ± 0.21	2.93 ± 0.2

NCCO [2-aminoethan-1-ol]
[2]
Settings	mass density [kg/m3]	viscosity [mPa·s]
298.15 K	1012 ± 1	19.9 ± 0.28
313.15 K	1000 ± 1	9.61 ± 0.23
323.15 K	992 ± 1	6.72 ± 0.21
343.15 K	976 ± 1	3.69 ± 0.2
353.15 K	968 ± 1	2.85 ± 0.2
